Experimental data published in paper PMC10475101, “Selective steroidogenic cytochrome P450 haem iron ligation by steroid-derived isonitriles” (Communications Chemistry, 2023).
Several values for one entry are separate records, joined by “and”; a condition that tells them apart may be missing. Equal entries are not always repeated. Entries after “also recorded” stand apart in the source; their conditions may differ.

Columns and labels:
CYP17A1 [1] = target: T1, CYP17A1 (Homo sapiens, UniProt P05093); experiment: Ligand binding assay (UV-visible difference spectra titration)
T1 construct: made in house
T1 sequence (P05093 1-508): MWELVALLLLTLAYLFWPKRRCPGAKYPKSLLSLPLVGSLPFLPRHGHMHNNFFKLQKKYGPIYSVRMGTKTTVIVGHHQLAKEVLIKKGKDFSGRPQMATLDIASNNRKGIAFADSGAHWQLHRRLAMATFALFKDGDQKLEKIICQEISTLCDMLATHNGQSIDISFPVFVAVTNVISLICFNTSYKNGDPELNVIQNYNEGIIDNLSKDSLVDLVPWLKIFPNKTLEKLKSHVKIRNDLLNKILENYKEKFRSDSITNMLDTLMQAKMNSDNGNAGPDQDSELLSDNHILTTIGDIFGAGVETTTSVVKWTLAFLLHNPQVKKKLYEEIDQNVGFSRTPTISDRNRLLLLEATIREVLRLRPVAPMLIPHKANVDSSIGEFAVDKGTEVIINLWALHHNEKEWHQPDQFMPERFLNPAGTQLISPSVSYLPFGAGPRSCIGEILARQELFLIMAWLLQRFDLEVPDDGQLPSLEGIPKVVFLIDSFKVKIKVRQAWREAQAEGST
Method: (§1) (Adapted from DeVore, et al.)[25] Ligand interaction with the heme iron was evaluated by titrating ligands into a cuvette containing purified CYP17A1[14], CYP2D6 L230D/L231R[26], or CYP3A4[27] and measured using a UV-visible scanning spectrophotometer. Enzyme was diluted to 0.2 µM in 100 mM potassium phosphate buffer (pH 7.4), 20% glycerol, and 100 mM sodium chloride and divided equally between two 5 mL cuvettes to evaluate high-affinity binding. Ligands dissolved in dimethylsulfoxide (DMSO) were added to the sample cuvette and an equal volume of DMSO to the reference cuvette. Difference spectra were recorded from 300 to 500 nm after equilibration of enzyme and ligand. Binding to the enzyme was measured as the difference in maximal and minimal absorbance: A387—A419 for pregnanolone and 3-formyl pregnanolone, and A435—A393 for compound 1 with CYP17A1; A434—A414 for compound 1 with CYP3A4 and CYP2D6. The dissociation constant and maximum spectral change were calculated using tight-binding or quadratic equation. All data fitting was accomplished using GraphPad Prism 9. Details of fitting are provided in Supplementary Information, and numerical data used to generate graphs in Figs. 2, 4 and 5 are provided in Supplementary Data 3 in Excel format.

CYP2D6 L230D/L231R = target: T2, CYP2D6 L230D/L231R (Homo sapiens, UniProt P10635, L230D/L231R); experiment: as above
T2 construct: made in house
Method: as §1

CYP17A1 [2] = target: T3, CYP17A1 (Homo sapiens, UniProt P05093); experiment: biochemical
T3 construct: made in house
T3 sequence (P05093 24-508 limits assumed): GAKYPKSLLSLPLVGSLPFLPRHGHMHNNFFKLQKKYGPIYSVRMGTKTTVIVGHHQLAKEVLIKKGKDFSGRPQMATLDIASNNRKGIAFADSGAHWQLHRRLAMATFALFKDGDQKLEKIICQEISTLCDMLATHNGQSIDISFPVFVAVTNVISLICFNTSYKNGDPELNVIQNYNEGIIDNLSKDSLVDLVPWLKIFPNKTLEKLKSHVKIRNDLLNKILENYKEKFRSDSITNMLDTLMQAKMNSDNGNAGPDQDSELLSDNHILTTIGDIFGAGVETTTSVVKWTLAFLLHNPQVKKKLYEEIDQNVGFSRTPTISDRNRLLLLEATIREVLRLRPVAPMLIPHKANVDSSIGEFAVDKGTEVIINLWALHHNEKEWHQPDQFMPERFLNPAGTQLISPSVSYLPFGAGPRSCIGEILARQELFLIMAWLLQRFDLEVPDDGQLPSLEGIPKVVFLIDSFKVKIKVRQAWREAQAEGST
Method: Metabolic activity of CYP17A1 was evaluated by measuring 17α-hydroxylation of progesterone as detected by HPLC with UV detection at 240 nm. A 1:4 ratio of CYP17A1 to recombinant NADPH-cytochrome P450 reductase was mixed and incubated on ice for 20 min. […] Reaction vials were warmed to 37 °C for 3 min, then catalysis was initiated by adding NADPH to a final concentration of 1 mM. After 10 min, metabolism was quenched by adding 300 µL of 20% trichloroacetic acid and placed on ice. The reaction vials were centrifuged to pellet the precipitated protein, then the supernatant was injected onto a C18 column for HPLC identification of product. Metabolite elution was normalized to β-estradiol as an internal standard. A standard curve of known product concentrations was used to convert normalized area under curve to amount of product produced. A four-parameter variable-slope equation was used to fit the data and calculate IC50 values for inhibitors using GraphPad Prism 9.
195 Metabolic activity of CYP17A1 was evaluated by measuring 17α-hydroxylation of progesterone as detected
196 by HPLC with UV detection at 240 nm. A 1:4 ratio of CYP17A1 to recombinant NADPH-cytochrome P450
197 reductase was mixed and incubated on ice for 20 minutes. This mixture was added to buffer (50 mM Tris, pH
199 Reaction vials were warmed to 37 °C for three minutes, then catalysis was initiated by adding NADPH to a
200 final concentration of 1 mM. After 10 minutes, metabolism was quenched by adding 300 µL of 20%
201 trichloroacetic acid and placed on ice. The reaction vials were centrifuged to pellet the precipitated protein,
202 then the supernatant was injected onto a C18 column (Phenomenex, Luna, 50 x 4.6 mm) for HPLC. The 30-
203 minute HPLC method ran at 0.8 mL/min and started with a mobile phase of 60% acetonitrile, 40% water with
204 0.2% acetic acid for five minutes, in creased to 80% acetonitrile over 10 minutes, held at 80% acetonitrile for
205 five minutes, 100% acetonitrile for five minutes, then returned to 60% acetonitrile to prepare for the next
206 sample. Metabolite elution was normalized to β-estradiol as an internal standard. A standard curve of known
207 product concentrations was used to convert normalized area under curve to amount of product produced. A
208 four-parameter variable-slope equation (Y=Ymin + (Ymax-Ymin)/(1+(IC50/X)^(Hill Slope))) was used to fit the data
209 and calculate IC50 values for inhibitors using GraphPad Prism 9.

CYP17A1 [3] = target: T1, CYP17A1; experiment: Reduction and reoxidation assay
Method: (§2) Reduction of the 1-bound P450 complex was observed by taking a baseline absorbance reading from 400 to 500 nm using a UV-visible scanning spectrophotometer, of a 1 cm quartz cuvette containing 1 µM P450, with compound 1 at a saturating concentration (i.e., ≥ concentration needed to reach ΔAmax), in binding assay buffer (100 mM potassium phosphate buffer (pH 7.4), 20% glycerol, and 100 mM sodium chloride). A small quantity of sodium dithionite (spatula tip-full) was then added to the cuvette, and the spectra were recorded periodically over time to observe the formation of peaks indicating the reduction (~426 and 456 nm) and subsequent reoxidation (~435 nm) of the complex. The total time course for Fig. 6B was 103 min and 37 s. Numerical data used to generate graphs in Fig. 6 are provided in Supplementary Data 3 in Excel format.
(§3) 185 S2) Ligand binding and inhibition assays
(§4) 186 Reduction and reoxidation assays. Reduction of the isonitrile-bound P450 complex was observed by taking
(§5) 187 a baseline absorbance reading from 400 to 500 nm using a UV-visible scanning spectrophotometer, of a 1cm
(§6) 188 quartz cuvette containing 1 µM P450, with the selected isonitrile compound at a saturating concentration
(§7) 189 (i.e., ≥ concentration needed to reach ΔAmax), in the same buffer used for binding assays (100 mM potassium
(§8) 190 phosphate buffer (pH 7.4), 20% glycerol, and 100 mM sodium chloride). A small quantity of sodium dithionite
(§9) 191 (spatula tip-full) was then added to the cuvette, and the spectra were recorded periodically over time to
(§10) 192 observe the formation of peaks indicating the reduction (~426 and 456 nm) and subsequent reoxidation
(§11) 193 (~435 nm) of the complex. The total time course for Figure 6B was 103 minutes and 37 seconds. […]
(§12) 217 initiated by adding NADPH to a final concentration of 1 mM. After 20 minutes, metabolism was quenched
(§13) 218 by adding 50 µL acetonitrile and placed on ice. The reaction vials were centrifuged at 5000 xg for 5 minutes
(§14) 219 to pellet the precipitated protein, then the supernatant was injected onto a C18 column (Phenomenex, Luna,
(§15) 220 50 x 4.6 mm) for HPLC. Separation on HPLC was obtained using a mobile phase of 45%/55% water/methanol
(§16) 221 for 40 minutes. A standard curve of known product concentrations was used to convert the area under the
(§17) 222 curve to the amount of product produced.
(§18) 224 S3) Crystallization of 1-CYP17A1 complex and X-ray diffraction
(§19) 225 Protein Crystallization and Structure Determination. CYP17A1 was saturated with 3β-formyl-5α
(§20) 226 pregnanolone-20(R)-isonitrile (verified by 430 nm Soret peak) and prepared for crystallization via hanging

CYP2D6 = target: T4, CYP2D6 (Homo sapiens, UniProt P10635, L230D/L231R); experiment: Reduction and reoxidation assay
T4 construct: made in house
Method: as §2, §3, §4, §5, §6, §7, §8, §9, §10, §11, §12, §13, §14, §15, §16, §17, §18, §19, §20

[4] = CYP17A1/20-(R)-1 complex reduced by sodium dithionite
[5] = CYP2D6/20-(R)-1 complex reduced by sodium dithionite

T4 sequence (P10635 whole entry L230D/L231R): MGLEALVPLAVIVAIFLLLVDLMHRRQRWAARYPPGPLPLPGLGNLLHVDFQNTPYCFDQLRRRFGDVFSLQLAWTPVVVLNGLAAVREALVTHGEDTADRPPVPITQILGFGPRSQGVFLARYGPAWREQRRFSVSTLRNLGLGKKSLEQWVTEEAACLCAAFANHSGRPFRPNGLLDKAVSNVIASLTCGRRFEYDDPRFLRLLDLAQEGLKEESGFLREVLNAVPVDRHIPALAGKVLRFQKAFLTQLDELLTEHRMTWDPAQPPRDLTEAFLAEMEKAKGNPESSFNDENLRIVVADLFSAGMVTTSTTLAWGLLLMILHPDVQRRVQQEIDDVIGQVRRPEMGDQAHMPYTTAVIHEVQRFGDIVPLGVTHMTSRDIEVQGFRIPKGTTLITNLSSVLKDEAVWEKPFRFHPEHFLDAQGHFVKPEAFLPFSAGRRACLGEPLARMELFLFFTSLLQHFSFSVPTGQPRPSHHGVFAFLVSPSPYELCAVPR
T2 sequence (P10635 whole entry L230D/L231R): as above

Compound: [C-]#[N+][C@H](C)[C@H]1CC[C@H]2[C@@H]3CC[C@H]4C[C@@H](OC=O)CC[C@]4(C)[C@H]3CC[C@]12C [Compound 1, 3β-formyl-5α-pregnanolone-(R)-20-isonitrile]
- Soret peak shift in difference spectra (CYP17A1 [1]; 2:1 mixture of C20 epimers of 1): 430 nm
- Soret peak after titration (heme spectral shift from 417 nm water-bound) (CYP17A1 [1]; ferric CYP17A1, 430 nm = Fe—C isonitrile bond, 424 nm = type II Fe—N): 430 nm
- dissociation constant estimate (tight binding equation fit) (CYP17A1 [1]; protein 200 nM, 95% CI undefined to 1.7 nM): 149 aM
- dissociation constant for CYP2D6 relative to CYP17A1 (CYP2D6 L230D/L231R; CYP2D6 versus CYP17A1): 3 million
- Kd (CYP2D6 L230D/L231R; protein 200 nM, 5 cm cuvette, n = 2, 95% CI undefined –6.4 nM, read-out: dissociation constant (Kd)): 0.49 nM and ~0.49 nM
- Fe—CN—R bond formation on titration (CYP2D6 L230D/L231R; titration of CYP2D6): indicated the formation of the Fe—CN—R bond
- IC50 (CYP17A1 [2]): 1300 nM
- slope of the inhibition curve (CYP17A1 [2]; CYP17A1 progesterone hydroxylation): 2.4
- reoxidation of reduced complex in air (CYP17A1 [3]; CYP17A1/20-(R)-1, in air over 105 min): largely resistant to re-oxidation; also recorded: little reoxidation
- split Soret after reduction, higher-wavelength maximum (CYP17A1 [3]; [4]): 454 nm
- split Soret after reduction, lower-wavelength maximum (CYP17A1 [3]; [4]): 430 nm and 429.5 nm
- Soret peak after reoxidation in air (CYP2D6; CYP2D6/20-(R)-1): ~ 435 nm and 437 nm
- reoxidation of reduced complex in air (CYP2D6; CYP2D6/20-(R)-1, same time period): re-oxidizes in air
- split Soret after reduction, higher-wavelength maximum (CYP2D6; [5]): 455 nm
- split Soret after reduction, lower-wavelength maximum (CYP2D6; [5]): 431 nm
